Source: US12458605B2, “Lipid nanoparticle” (National University Corporation Hokkaido University, priority 2020, dated 2025)
Several values for one entry are separate records, joined by “and”; a condition that tells them apart may be missing. Equal entries are not always repeated.

Tests used:
[1] = system: factor VII (F7); details: mouse liver; lipid as LNP carrier of siRNA; cited from earlier work
[2] = system: spleen; test: In vivo Fluc activity of FlucmRNA-loaded LNP by in vivo imaging, spleen; details: Balb/c mice, FlucmRNA-loaded LNP i.v. 0.1 mg mRNA/kg, 6 hours
How it was run: (§1)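 Read-out is average radiance (p/s/cm2/sr, about 560 nm) from whole-animal imaging of liver and spleen 6 h post-dose, after tail-vein luciferin at 1.5 mg/mouse. Dosing was intravenous, 0.1 mg mRNA/kg, in 7-week-old female Balb/c mice.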

[3] = siRNA/mRNA encapsulation rate by Ribogreen reagent (section IV); type: physicochemical; details: for % siRNA encapsulation: F7siRNA-loaded LNP, 50:10:38.5:1.5, N/P ratio 6; for % mRNA encapsulation: FlucmRNA-loaded LNP, 50:10:38.5:1.5
How it was run: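 Encapsulation % was calculated as (total − surface nucleic acid)/total × 100, with both values measured by RiboGreen fluorescence at 485/528 nm. Total RNA was read on LNPs lysed with 1% Triton X-100 at 1.2 μg/mL, and surface RNA on intact LNPs at 8 μg/mL in TE buffer. Concentrations came from a 0-2.5 μg/mL Triton-containing calibration curve.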

[4] = Average particle size (ζ-Average) and PDI by dynamic light scattering (Zetasizer Nano ZSP); type: physicochemical
How it was run: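 Dynamic light scattering of the particles in PBS(−) gave both the polydispersity index and the ζ-Average mean size.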

[5] = Zeta potential in 10 mM HEPES buffer (pH 7.4); type: physicochemical
Method: (§2) The average particle size (number-average value) and PDI in PBS(−) and zeta potential in 10 mM HEPES buffer solution (pH 7.4) of lipid nanoparticles were measured using “Zetasizer Nano ZS ZEN3600”, an analyzer utilizing dynamic light scattering (manufactured by Malvern).

[6] = pKa of lipid nanoparticles by TNS (section II); type: physicochemical; details: F7siRNA-loaded LNP; compared with LNP of straight-chain CL4H6 or CL15H6 (FIG. 1)
Method: The pKa of lipid nanoparticles was measured using p-toluidino-2-naphthalenesulfonic acid (TNS). First, TNS (final concentration: 0.75 μM) and lipid nanoparticles (final concentration: […]) were mixed in buffer solution adjusted to each pH. The fluorescence intensity of the prepared mixture was measured with a microplate reader. The highest and lowest values among the measured values were taken as 100% and 0% charge rates respectively, and the pH indicating 50% charge rate was calculated as pKa.

[7] = Average particle size and PDI by dynamic light scattering (Zetasizer Nano ZS); type: physicochemical
Method: as §2

[8] = system: liver; test: In vivo Fluc activity of FlucmRNA-loaded LNP by in vivo imaging, liver; details: Balb/c mice, FlucmRNA-loaded LNP i.v. 0.1 mg mRNA/kg, 6 hours
How it was run: as §1

[9] = system: F7; test: In vivo F7 knockdown, plasma F7 enzyme activity, ICR mice; details: i.v. 0.003-0.1 mg siRNA/kg, plasma at 24 hours, compared with LNP of CL4H6 or CL15H6 (FIG. 2)
Method: Then, each prepared F7siRNA-loaded lipid nanoparticles were administered to ICR mice (4 weeks old, female) and in vivo F7 knockdown activity was examined.
Specifically, each F7siRNA-loaded lipid nanoparticles were intravenously administered to ICR mice at 0.003-0.1 mg siRNA/kg, and plasma F7 enzyme activity at 24 hours later was measured. Relative plasma F7 enzyme activity (%) of mice administered each F7siRNA-loaded lipid nanoparticles was calculated using plasma F7 enzyme activity of untreated mice as 100%. FIG. 2(B) is the results of intravenous administration of each F7siRNA-loaded lipid nanoparticle at 0.1 mg siRNA/kg.

[10] = Nucleic acid encapsulation rate by Ribogreen (section II); type: physicochemical; details: for % mRNA encapsulation: NlucmRNA-loaded LNP, 60:10:40:1; for % pDNA encapsulation: pFluc-loaded LNP
Method: The encapsulation rates of siRNA, mRNA, and pDNA of lipid nanoparticles were measured using Ribogreen (manufactured by life technologies).

[11] = system: F7; test: In vivo F7 knockdown, plasma F7 enzyme activity (BIOPHEN FVII), Balb/c mice; details: i.v. 0.025 mg siRNA/kg, plasma at 24 hours; for F7 enzyme activity (Ratio using MC3 as 1): relative plasma F7 activity of MC3 LNP as 1; for F7 enzyme activity (%): untreated mice as 100%
How it was run: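 Plasma factor VII activity was read 24 h after a single intravenous 0.025 mg siRNA/kg dose of siRNA-loaded lipid nanoparticles in 5-week-old female Balb/c mice. Activity is relative to untreated animals (100%) and normalised to the MC3 nanoparticle benchmark (=1).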

[12] = Storage stability of FlucmRNA-loaded LNP at −80, 5, 25 and 40° C.; type: physicochemical; details: for period for which quality remained good, −80° C.: maximum storage period 1 week
How it was run: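 Reported period is how long all three criteria hold: encapsulation rate at 80% or more, PDI of 0.2 or less, and mean particle size within +/−20 nm of day-of-preparation value. Particle size, PDI and nucleic acid encapsulation were tracked over time at storage temperatures of −80, 5, 25 and 40° C.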

[13] = F7siRNA-loaded LNP, 50:10:38.5:1.5, N/P ratio 6
[14] = FlucmRNA-loaded LNP, 50:10:38.5:1.5
[15] = FlucmRNA-loaded LNP, lipid:DSPC:cholesterol:DMG-PEG2K 50:10:38.5:1.5
[16] = NlucmRNA-loaded LNP, 60:10:40:1
[17] = NlucmRNA-loaded LNP, lipid:DSPC:cholesterol:PEG-DMG 60:10:40:1
[18] = pFluc-loaded LNP, 50:10:40:1.5, N/P ratio 6
[19] = pFluc-loaded LNP, 50:10:40:1.5, N/P ratio 9

| Compound | ED50 in F7 knockdown [1] | Fluc Activity in spleen [2] | % siRNA encapsulation [3] | % mRNA encapsulation [3] | PDI [4, 13] | ζ-Average (nm) [4, 13] | PDI [4, 14] | ζ-Average (nm) [4, 15] | ζ-potential (mV) [5, 16] | ζ-potential (mV) ([5]; pFluc-loaded LNP, N/P ratio 6) | ζ-potential (mV) ([5]; pFluc-loaded LNP, N/P ratio 9) | PdI [7, 16] | ζ-Average (nm) [7, 17] | ζ-Average (nm) [7, 18] | ζ-Average (nm) [7, 19] | PdI ([7]; pFluc-loaded LNP, N/P ratio 6) | PdI ([7]; pFluc-loaded LNP, N/P ratio 9) | % mRNA encapsulation [10] | % pDNA encapsulation ([10]; N/P ratio 6) | % pDNA encapsulation ([10]; N/P ratio 9) | further results |
| --- | --- | --- | --- | --- | --- | --- | --- | --- | --- | --- | --- | --- | --- | --- | --- | --- | --- | --- | --- | --- | --- |
| CCCCCCCCCCC(O)CN(CCCCC1NC(=O)C(CCCCN(CC(O)CCCCCCCCCC)CC(O)CCCCCCCCCC)NC1=O)CC(O)CCCCCCCCCC (stereo not shown) [cKK-E12] | 0.002 mg siRNA/kg | – | – | – | – | – | – | – | – | – | – | – | – | – | – | – | – | – | – | – | – |
| CC(CCC(C(=O)OCCCCCCC(O)(CCCCCCOC(=O)C(CCC(C)CC(C)(C)C)C(C)CC(C)(C)C)CCCCOC(=O)C1CCN(C)CC1)C(C)CC(C)(C)C)CC(C)(C)C (stereo not shown) [CL15G6] | – | 2.77E+06 Avg Radiance [p/s/cm2/sr] | 100.7% | 100.24% | 0.021 | 97.73 nm | 0.012 | 102.40 nm | 0.419 mV | −5.84 mV | −1.9 ± 0.6 mV | 0.201 | 71.65 nm | 86.39 nm | 100.9 ± 10.7 nm | 0.03 | 0.12 ± 0.08 | 91.8% | 94.7% | 91.1 ± 2.1% | pKa of lipid nanoparticle, compared [6]: lower pKa; Fluc Activity in liver [8]: 6.52E+06 Avg Radiance [p/s/cm2/sr]; in vivo F7 knockdown activity, compared [9]: equivalent in vivo F7 knockdown activity; F7 enzyme activity (Ratio using MC3 as 1) [11]: 2.69 |
| CCCCCC/C=C\COC(=O)CCCCCCCC(CCCCCCCC(=O)OC/C=C\CCCCCC)OC(=O)CCCN(C)C [L319] | 0.01 mg siRNA/kg | – | – | – | – | – | – | – | – | – | – | – | – | – | – | – | – | – | – | – | – |
| CCCCC/C=C\C/C=C\CCCCCCCCOC1(OCCCCCCCC/C=C\C/C=C\CCCCC)CCN(C)CC1 [YSK05] | 0.06 mg siRNA/kg | – | – | – | – | – | – | – | – | – | – | – | – | – | – | – | – | – | – | – | – |
| CCCCCCCC/C=C\CCCCCCCC(=O)OCCCCCCC(O)(CCCCCCOC(=O)CCCCCCC/C=C\CCCCCCCC)CCCCN(CCC)CCC [CL4H6, 7-(4-(dipropylamino)butyl)-7-hydroxytridecane-1,13-diyl dioleate, reference compound] | – | 2.10E+06 Avg Radiance [p/s/cm2/sr] | 96.1% | 80.1% | 0.102 | 68.86 nm | 0.072 | 71.28 nm | −1.23 mV | −0.57 mV | −0.4 ± 0.4 mV | 0.139 | 113.4 nm | 105.6 nm | 113.9 ± 4.2 nm | 0.14 | 0.2 ± 0.03 | 77.6% | 41.5% | 70 ± 5.2% | period for which quality remained good, −80° C. [12]: 0 week; period for which quality remained good, 5° C. ([12]; maximum storage period 5 weeks): 0 week weeks; period for which quality remained good, 25° C. ([12]; maximum storage period 5 weeks): 1 week weeks; period for which quality remained good, 40° C. (days) ([12]; maximum storage period 5 weeks): 0 day days; Fluc Activity in liver [8]: 1.06E+07 Avg Radiance [p/s/cm2/sr]; F7 enzyme activity (%) [11]: 47.2% |
| CCCCCCCCC(CCCCCC)C(=O)OCCCCCCC(O)(CCCCCCOC(=O)C(CCCCCC)CCCCCCCC)CCCCN(CCC)CCC (stereo not shown) [CL4F6, 7-(4-(dipropylamino)butyl)-7-hydroxytridecane-1,13-diyl bis(2-hexyldecanoate)] | – | – | 99.9% | 99.6% and 99.4% | 0.014 | 92.27 nm | – | 82.66 nm and 88.07 nm | −3.72 mV | −5.17 mV | −1.7 ± 0.5 mV | 0.157 | 127.2 nm | 79.91 nm | 91.3 ± 11.2 nm | 0.08 | 0.19 ± 0.03 | 90% | 97.1% | 94.8 ± 3.3% | period for which quality remained good, −80° C. [12]: 1 week; period for which quality remained good, 5° C. ([12]; maximum storage period 5 weeks): 5 weeks; period for which quality remained good, 25° C. ([12]; maximum storage period 5 weeks): 5 weeks; period for which quality remained good, 40° C. (weeks) ([12]; maximum storage period 5 weeks): 5 weeks; pKa of lipid nanoparticle, compared [6]: lower pKa; in vivo F7 knockdown activity, compared [9]: equivalent in vivo F7 knockdown activity; F7 enzyme activity (%) [11]: 6.8% |
| CCCCCCCC/C=C\CCCCCCCC(=O)OCCCCCCC(O)(CCCCCCOC(=O)CCCCCCC/C=C\CCCCCCCC)CCCCOC(=O)C1CCN(C)CC1 [CL15H6, 7-hydroxy-7-(4-((1-methylpiperidine-4-carbonyl)oxy)butyl)tridecane-1,13-diyl dioleate, reference compound] | – | 6.17E+05 Avg Radiance [p/s/cm2/sr] | 100.2% | 83.8% | 0.142 | 123.50 nm | 0.238 | 180.90 nm | 0.123 mV | 0.367 mV | 0.9 ± 0.9 mV | 0.495 | 94.34 nm | 121.7 nm | 149.9 ± 9.8 nm | 0.08 | 0.11 ± 0.01 | 90.5% | 72.4% | 81.9 ± 3^ % | quality at production (storage stability criteria) ([12]; criteria: PDI 0.2 or less, encapsulation 80% or more): Does not meet the criteria for “good” at production; Fluc Activity in liver [8]: 1.17E+05 Avg Radiance [p/s/cm2/sr]; F7 enzyme activity (Ratio using MC3 as 1) [11]: 1.99 |
